According to patent EP2766361B1, “8-CARBAMOYL-2-(2,3-DISUBSTITUTED PYRID-6-YL)-1,2,3,4-TETRAHYDROISOQUINOLINE DERIVATIVES AS APOPTOSIS-INDUCING AGENTS FOR THE TREATMENT OF CANCER AND IMMUNE AND AUTOIMMUNE DISEASES” (priority 2011, dated 2013):

Tests used:
[1] = system: Molt-4 human acute lymphoblastic leukemia cells; assay: Molt-4 cellular assay (cell viability, MTS); type: cell-based; conditions: 10% human serum, 48 hours
Procedure: Molt-4 (ATCC, Manassas, VA) human acute lymphoblastic leukemia cells were plated 50,000 cells per well in 96-well tissue culture plates in a total volume of 100 µL tissue culture medium supplemented with 10% human serum (Invitrogen, Carlsbad, CA) and treated with a 3-fold serial dilution of the compounds of interest from 5 µM to […]. Each concentration was tested in duplicate at least 3 separate times. The number of viable cells following 48 hours of compound treatment was determined using the CellTiter 96® Aqueous non-radioactive cell proliferation MTS assay according to manufacturer's recommendations (Promega Corp., Madison, WI).

[2] = system: mouse FL5.12 cells transfected with Bcl-xL; assay: FL5.12 cellular assay (cell viability, CellTiter-Glo); type: cell-based; conditions: IL-3-depleted, 3% FBS assay media, 24 hours, read-out: FL5.12 Bcl-xL, -IL3, EC50
Procedure: Cell viability was assayed using the CellTiter-Glo assay (Promega Corp., Madison, WI) according to the manufacturer instructions. Individual determinations were the result of duplicate values. […] Table 2. In Vitro Data

[3] = Single dose pharmacokinetics, oral bioavailability; type: in vivo, Sprague-Dawley rats; conditions: for bioavailability: rat, in vivo, po
Procedure: The single dose pharmacokinetics of select compounds were evaluated in Sprague-Dawley rats (Charles River) after a 5 mg/kg oral dose (n = 3) (10% DMSO in PEG-400) administered by gavage or by 5 mg/kg IV bolus dose (n = 3) (10% DMSO in PEG-400). Compound and the internal standard were separated from each other and coextracted contaminants on a 50 mm × 3 mm Keystone Betasil CN 5 µm column with an acetonitrile/0.1% trifluoroacetic acid mobile phase (50:50, by volume) at a flow rate of 0.7 mL/min. Analysis was performed on a Sciex API3000 biomolecular mass analyzer with a heated nebulizer interface. Compound and internal standard peak areas were determined using Sciex MacQuan software. The plasma drug concentration of each sample was calculated by least-squares linear regression analysis (nonweighted) of the peak area ratio (parent/internal standard) of the spiked plasma standards versus concentration. The plasma concentration data were submitted to multiexponential curve fitting using WinNonlin.3. The area under the plasma concentration-time curve was calculated using the linear trapezoidal rule for the plasma concentration-time profiles.
One way to calculate bioavailability of a drug or agent is by dividing the plasma concentration following an oral dose by the concentration following an intravenous dose.

EC50 [1] [nM]	bioavailability ([3]; 5 mg/kg) [%]	bioavailability ([3]; 1 mg/kg) [%]	SMILES	EC50 [2] [nM]	F (%), dose ([3]; Rat p.o. dose, 5 mpk)
201	–	–	O=C(Nc1nc2ccccc2s1)c1cccc2c1CN(c1ccc(-c3cnn(CC45CC6CC(CC(C6)C4)C5)c3)c(C(=O)O)n1)CC2 [Example 1, 6-[8-(1,3-benzothiazol-2-ylcarbamoyl)-3,4-dihydroisoquinolin-2(1H)-yl]-3-{1-[tricyclo[3.3.1.1^3,7]dec-1-ylmethyl]-1H-pyrazol-4-yl}pyridine-2-carboxylic acid]	39	–
487	–	–	O=C(Nc1nc2ccccc2s1)c1cccc2c1CN(c1ccc(-c3cnn(CC4C5CC6CC(C5)CC4C6)c3)c(C(=O)O)n1)CC2 (centres unmarked) [Example 10, 6-[8-(1,3-benzothiazol-2-ylcarbamoyl)-3,4-dihydroisoquinolin-2(1H)-yl]-3-[1-(tricyclo[3.3.1.1^3,7]dec-2-ylmethyl)-1H-pyrazol-4-yl]pyridine-2-carboxylic acid]	29	–
–	10	–	O=C(Nc1nc2ccccc2s1)c1cccc2c1CN(c1ccc(-c3cnn(CC45CC6CC(CC(C6)O4)C5)c3)c(C(=O)O)n1)CC2 [Example 13, 6-[8-(1,3-benzothiazol-2-ylcarbamoyl)-3,4-dihydroisoquinolin-2(1H)-yl]-3-[1-(2-oxatricyclo[3.3.1.1^3,7]dec-1-ylmethyl)-1H-pyrazol-4-yl]pyridine-2-carboxylic acid]	71	–
–	20	–	COC12CC3CC(CC(Cn4ncc(-c5ccc(N6CCc7cccc(C(=O)Nc8nc9ccccc9s8)c7C6)nc5C(=O)O)c4C)(C3)C1)C2 [Example 16, 6-[8-(1,3-benzothiazol-2-ylcarbamoyl)-3,4-dihydroisoquinolin-2(1H)-yl]-3-(1-{[3-methoxytricyclo[3.3.1.1^3,7]dec-1-yl]methyl}-5-methyl-1H-pyrazol-4-yl)pyridine-2-carboxylic acid]	< 1	–
24	31	–	Cc1c(-c2ccc(N3CCc4cccc(C(=O)Nc5nc6ccccc6s5)c4C3)nc2C(=O)NS(=O)(=O)C2CC2)cnn1CC12CC3CC(CC(C3)C1)C2 [Example 18, N-(1,3-benzothiazol-2-yl)-2-{6-[(cyclopropylsulfonyl)carbamoyl]-5-[5-methyl-1-(tricyclo[3.3.1.1^3,7]dec-1-ylmethyl)-1H-pyrazol-4-yl]pyridin-2-yl}-1,2,3,4-tetrahydroisoquinoline-8-carboxamide]	1	–
16	–	–	Cc1c(-c2ccc(N3CCc4cccc(C(=O)Nc5nc6ccccc6s5)c4C3)nc2C(=O)O)cc(C#N)n1CC12CC3CC(CC(C3)C1)C2 [Example 23, 6-[8-(1,3-benzothiazol-2-ylcarbamoyl)-3,4-dihydroisoquinolin-2(1H)-yl]-3-[5-cyano-2-methyl-1-(tricyclo[3.3.1.1^3,7]dec-1-ylmethyl)-1H-pyrrol-3-yl]pyridine-2-carboxylic acid]	< 1	–
–	29	–	Cc1c(-c2ccc(N3CCc4cccc(C(=O)Nc5nc6cccnc6s5)c4C3)nc2C(=O)O)cnn1CC12CC3CC(CC(C3)C1)C2 [Example 24, 3-[5-methyl-1-(tricyclo[3.3.1.1^3,7]dec-1-ylmethyl)-1H-pyrazol-4-yl]-6-[8-([1,3]thiazolo[5,4-b]pyridin-2-ylcarbamoyl)-3,4-dihydroisoquinolin-2(1H)-yl]pyridine-2-carboxylic acid]	< 1	–
526	–	–	Cc1c(OC23CC4CC(CC(C4)C2)C3)cccc1-c1ccc(N2CCc3cccc(C(=O)Nc4nc5ccccc5s4)c3C2)nc1C(=O)O [Example 28, 6-[8-(1,3-benzothiazol-2-ylcarbamoyl)-3,4-dihydroisoquinolin-2(1H)-yl]-3-{2-methyl-3-[tricyclo[3.3.1.1^3,7]dec-1-yloxy]phenyl}pyridine-2-carboxylic acid]	22	–
–	–	15	O=C(Nc1nc2ccccc2s1)c1cccc2c1CN(c1ccc(-c3cnn(CC45CC6CC(CC(C6)C4)C5)c3Cl)c(C(=O)O)n1)CC2 [Example 42, 6-[8-(1,3-benzothiazol-2-ylcarbamoyl)-3,4-dihydroisoquinolin-2(1H)-yl]-3-{5-chloro-1-[tricyclo[3.3.1.1^3,7]dec-1-ylmethyl]-1H-pyrazol-4-yl}pyridine-2-carboxylic acid]	0.5	–
–	–	20	Cc1c(-c2ccc(N3CCc4cccc(C(=O)Nc5nc6ccccc6s5)c4C3C)nc2C(=O)O)cnn1CC12CC3CC(CC(C3)C1)C2 (centres unmarked) [Example 43, 6-[8-(1,3-benzothiazol-2-ylcarbamoyl)-1-methyl-3,4-dihydroisoquinolin-2(1H)-yl]-3-[5-methyl-1-(tricyclo[3.3.1.1^3,7]dec-1-ylmethyl)-1H-pyrazol-4-yl]pyridine-2-carboxylic acid]	9	–
4	–	–	COCCOC12CC3CC(CC(Cn4ncc(-c5ccc(N6CCc7cccc(C(=O)Nc8nc9ccccc9s8)c7C6)nc5C(=O)O)c4C)(C3)C1)C2 [Example 45, 6-[8-(1,3-benzothiazol-2-ylcarbamoyl)-3,4-dihydroisoquinolin-2(1H)-yl]-3-(1-{[3-(2-methoxyethoxy)tricyclo[3.3.1.1^3,7]dec-1-yl]methyl}-5-methyl-1H-pyrazol-4-yl)pyridine-2-carboxylic acid]	0.9	–
–	–	58	COCCC1(Cn2ncc(-c3ccc(N4CCc5cccc(C(=O)Nc6nc7ccccc7s6)c5C4)nc3C(=O)O)c2C)CCCCCCC1 [Example 46, 6-[8-(1,3-benzothiazol-2-ylcarbamoyl)-3,4-dihydroisoquinolin-2(1H)-yl]-3-(1-{[1-(2-methoxyethyl)cyclooctyl]methyl}-5-methyl-1H-pyrazol-4-yl)pyridine-2-carboxylic acid]	1	–
–	–	15	Cc1c(-c2ccc(N3CCc4cccc(C(=O)Nc5cn6ccccc6n5)c4C3)nc2C(=O)O)cnn1CC12CC3CC(CC(C3)C1)C2 [Example 49, 6-[8-(imidazo[1,2-a]pyridin-2-ylcarbamoyl)-3,4-dihydroisoquinolin-2(1H)-yl]-3-[5-methyl-1-(tricyclo[3.3.1.1^3,7]dec-1-ylmethyl)-1H-pyrazol-4-yl]pyridine-2-carboxylic acid]	5	–
29	–	–	Cc1c(-c2ccc(N3CCc4cccc(C(=O)Nc5nc6ccccc6s5)c4C3)nc2C(=O)O)cccc1N(C)C(=O)C12CC3CC(CC(C3)C1)C2 [Example 52, 6-[8-(1,3-benzothiazol-2-ylcarbamoyl)-3,4-dihydroisoquinolin-2(1H)-yl]-3-(2-methyl-3-{methyl[tricyclo[3.3.1.1^3,7]dec-1-ylcarbonyl]amino}phenyl)pyridine-2-carboxylic acid]	3	–
24	–	31	Cc1c(-c2ccc(N3CCc4cccc(C(=O)Nc5nc6ccccc6s5)c4C3)nc2C(=O)O)cnn1CC12CC3CC(CC(C3)O1)C2 [Example 59, 6-[8-(1,3-benzothiazol-2-ylcarbamoyl)-3,4-dihydroisoquinolin-2(1H)-yl]-3-[5-methyl-1-(2-oxatricyclo[3.3.1.1^3,7]dec-1-ylmethyl)-1H-pyrazol-4-yl]pyridine-2-carboxylic acid]	0.3	–
35	–	–	Cc1c(-c2ccc(N3CCc4cccc(C(=O)Nc5nc6ccccc6s5)c4C3)nc2C(=O)O)cc(C#N)n1CC12CC3CC(CC(C)(C3)O1)C2 [Example 72, 6-[8-(1,3-benzothiazol-2-ylcarbamoyl)-3,4-dihydroisoquinolin-2(1H)-yl]-3-{5-cyano-2-methyl-1-[(3-methyl-2-oxatricyclo[3.3.1.1^3,7]dec-1-yl)methyl]-1H-pyrrol-3-yl}pyridine-2-carboxylic acid]	0.2	–
–	–	–	O=C(Nc1nc2ccccc2s1)c1cccc2c1CN(c1ccc(-c3ccc(=O)n(CC45CC6CC(CC(C6)C4)C5)c3)c(C(=O)O)n1)CC2 [Example 85, 6-[8-(1,3-benzothiazol-2-ylcarbamoyl)-3,4-dihydroisoquinolin-2(1H)-yl]-6'-oxo-1'-(tricyclo[3.3.1.1^3,7]dec-1-ylmethyl)-1',6'-dihydro-3,3'-bipyridine-2-carboxylic acid]	111	–

SMILES	EC50 [1] [nM]	bioavailability ([3]; 5 mg/kg) [%]	bioavailability ([3]; 1 mg/kg) [%]	EC50 [2] [nM]	F (%), dose ([3]; Rat p.o. dose, 5 mpk)
Cc1c(-c2ccc(N3CCc4cccc(C(=O)Nc5nc6ccccc6s5)c4C3)nc2C(=O)O)cnn1CC12CC3CC(CC(C3)C1)C2 [Example 3, 6-[8-(1,3-benzothiazol-2-ylcarbamoyl)-3,4-dihydroisoquinolin-2(1H)-yl]-3-[5-methyl-1-(tricyclo[3.3.1.1^3,7]dec-1-ylmethyl)-1H-pyrazol-4-yl]pyridine-2-carboxylic acid]	6	–	–	< 1	[…]
